Measurements: patent US20240262833A1, “FUSED HETEROCYCLIC DERIVATIVES AS NEGATIVE ALLOSTERIC MODULATORS OF MGLU7 RECEPTOR” (Addex Pharma S.A., priority 2021, published 2024)

Columns and labels:
[1] = target: T1, human metabotropic glutamate 7 receptor (hmGlu7) (Homo sapiens, UniProt Q14831); experiment: mGlu7 assay on HEK-expressing human mGlu7: fluorescent cell based Ca2+ mobilization assay (FLIPR), inhibition of EC80 L-AP4 response; details: HEK-293 cells expressing hmGlu7; EC80 L-AP4 stimulation; mean of at least three independent experiments in duplicate; read-out: Ca2+ Flux (mean IC50)
T1 construct: expressed in transfected cells
T1 sequence (Q14831 35-922 isoform Q14831-2): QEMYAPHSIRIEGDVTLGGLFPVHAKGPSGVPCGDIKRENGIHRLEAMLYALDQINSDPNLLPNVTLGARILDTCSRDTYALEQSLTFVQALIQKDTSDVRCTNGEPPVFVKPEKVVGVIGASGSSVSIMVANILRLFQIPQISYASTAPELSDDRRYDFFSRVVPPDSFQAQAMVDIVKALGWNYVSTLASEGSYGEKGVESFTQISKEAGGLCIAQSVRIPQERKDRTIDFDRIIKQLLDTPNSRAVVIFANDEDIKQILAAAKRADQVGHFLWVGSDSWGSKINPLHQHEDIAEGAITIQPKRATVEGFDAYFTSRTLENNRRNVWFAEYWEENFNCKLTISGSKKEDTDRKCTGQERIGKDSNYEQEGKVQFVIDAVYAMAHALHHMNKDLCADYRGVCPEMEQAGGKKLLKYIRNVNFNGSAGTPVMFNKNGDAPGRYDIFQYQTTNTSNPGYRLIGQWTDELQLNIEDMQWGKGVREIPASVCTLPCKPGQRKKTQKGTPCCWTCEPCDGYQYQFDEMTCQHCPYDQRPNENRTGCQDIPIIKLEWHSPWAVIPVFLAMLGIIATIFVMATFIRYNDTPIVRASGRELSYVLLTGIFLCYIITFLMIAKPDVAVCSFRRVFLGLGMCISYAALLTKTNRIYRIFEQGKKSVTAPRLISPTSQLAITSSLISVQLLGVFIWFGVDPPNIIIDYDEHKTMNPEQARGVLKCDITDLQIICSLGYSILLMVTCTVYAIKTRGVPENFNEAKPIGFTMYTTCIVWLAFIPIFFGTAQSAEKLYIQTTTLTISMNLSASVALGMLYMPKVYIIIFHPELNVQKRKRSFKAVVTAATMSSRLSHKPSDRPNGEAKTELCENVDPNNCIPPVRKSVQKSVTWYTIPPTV
Method in brief: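 HEK293 cells stably expressing hmGlu7 with a calcium-redirecting G protein were Fluo4-AM-loaded and assayed at pH 7.4 in HEPES buffer. Compounds were monitored for 180 s for agonism, then cells were challenged with EC80 L-AP4 for 110 s. IC50 was obtained from four-parameter fits, as the mean of ≥3 experiments run in duplicate.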

Structure (SMILES) | IC50 [1] | melting point
COc1cccc(-n2c(C)c3cnn(-c4ccc(C(C)O)cc4)c(=O)c3c2C)c1 (stereo not drawn) [1-138, 2-(4-(1-Hydroxyethyl)phenyl)-6-(3-methoxyphenyl)-5,7-dimethyl-2,6-dihydro-1H-pyrrolo[3,4-d]pyridazin-1-one] | < 100 nM | 192 to 195 °C
CC(=O)c1cccc(-n2c(C)c3cnn(-c4ccccc4)c(=O)c3c2C)c1 [1-36, 6-(3-Acetylphenyl)-5,7-dimethyl-2-phenyl-2,6-dihydro-1H-pyrrolo [3,4-d]pyridazin-1-one] | 100 to 1000 nM | 202 to 204 °C
Cc1c2cnn(-c3ccccc3)c(=O)c2c(C)n1-c1cccc(N2CCCC2)c1 [1-101, 5,7-Dimethyl-2-phenyl-6-(3-(pyrrolidin-1-yl)phenyl)-2,6-dihydro-1H-pyrrolo[3,4-d]pyridazin-1-one] | 100 to 1000 nM | 228 to 229 °C
O=c1c2cn(-c3cccc(N4CCC4)c3)cc2cnn1-c1ccccn1 [1-188, 6-(3-(Azetidin-1-yl)phenyl)-2-(pyridin-2-yl)-2,6-dihydro-1H-pyrrolo[3,4-d]pyridazin-1-one] | 1000 to 10000 nM | 190 to 192 °C
Cc1c2cnn(-c3ncccn3)c(=O)c2c(C)n1-c1cccc(OC2CC2)c1Cl [1-215, 6-(2-Chloro-3-cyclopropoxyphenyl)-5,7-dimethyl-2-(pyrimidin-2-yl)-2,6-dihydro-1H-pyrrolo[3,4-d]pyridazin-1-one] | < 100 nM | 228 °C
Cc1c2cnn(-c3ccccn3)c(=O)c2c(C)n1-c1cccc(-c2ccccc2)c1 [1-76, 6-([1,1′-Biphenyl]-3-yl)-5,7-dimethyl-2-(pyridin-2-yl)-2,6-dihydro-1H-pyrrolo[3,4-d]pyridazin-1-one] | 100 to 1000 nM | 106 to 109 °C
COc1cccc(-n2c(C)c3cnn(-c4ccc(O)nc4)c(=O)c3c2C)c1 [1-131, 2-(6-Hydroxypyridin-3-yl)-6-(3-methoxyphenyl)-5,7-dimethyl-2,6-dihydro-1H-pyrrolo[3,4-d]pyridazin-1-one] | 100 to 1000 nM | 207 to 209 °C
Cc1c2cnn(-c3ccccc3)c(=O)c2c(C)n1-c1cccc(O)c1 [1-51, 6-(3-Hydroxyphenyl)-5,7-dimethyl-2-phenyl-2,6-dihydro-1H-pyrrolo[3,4-d]pyridazin-1-one] | 1000 to 10000 nM | 252 to 254 °C
Cc1c2cnn(-c3ccccn3)c(=O)c2c(C)n1-c1cccc(-n2nccn2)c1 [1-199, 6-(3-(2H-1,2,3-Triazol-2-yl)phenyl)-5,7-dimethyl-2-(pyridin-2-yl)-2,6-dihydro-1H-pyrrolo[3,4-d]pyridazin-1-one] | 100 to 1000 nM | 173 °C
Cc1c2cnn(-c3ccccc3F)c(=O)c2c(C)n1-c1ccccc1 [1-21, 2-(2-Fluorophenyl)-5,7-dimethyl-6-phenyl-2,6-dihydro-1H-pyrrolo [3,4-d]pyridazin-1-one] | 100 to 1000 nM | 226 °C
COCCNc1cccc(-n2c(C)c3cnn(-c4ccccc4)c(=O)c3c2C)c1 [1-43, 6-(3-(2-Methoxyethylamino)phenyl)-5,7-dimethyl-2-phenyl-2,6-dihydro-1H-pyrrolo[3,4-d]pyridazin-1-one] | 100 to 1000 nM | 116 to 119 °C
CCN(CC)c1cccc(-n2c(C)c3cnn(-c4ccccn4)c(=O)c3c2C)c1 [1-100, 6-(3-(Diethylamino)phenyl)-5,7-dimethyl-2-(pyridin-2-yl)-2,6-dihydro-1H-pyrrolo[3,4-d]pyridazin-1-one] | 100 to 1000 nM | < 85 °C
COc1cccc(-n2c(C)c3cnn(-c4ccc(C#N)cc4)c(=O)c3c2C)c1 [1-126] | 100 to 1000 nM | 97 to 99 °C
COc1ccccc1-n1ncc2c(C)n(-c3ccc(C)cc3)c(C)c2c1=O [1-2, 2-(2-Methoxyphenyl)-5,7-dimethyl-6-p-tolyl-2,6-dihydro-1H-pyrrolo[3,4-d]pyridazin-1-one] | 100 to 1000 nM | 202 °C
COc1cccc(-n2c(C)c3cnn(-c4ccc(C(C)(C)O)cc4)c(=O)c3c2C)c1 [1-135, 2-(4-(2-Hydroxypropan-2-yl)phenyl)-6-(3-methoxyphenyl)-5,7-dimethyl-2,6-dihydro-1H-pyrrolo[3,4-d]pyridazin-1-one] | < 100 nM | 103 to 108 °C
